Measured values as given in ChEMBL document CHEMBL6103595, “Synthesis and evaluation of piceatannol derivatives as novel arginase inhibitors with radical scavenging activity and their potential for collagen reduction in dermal fibroblasts” (Eur J Med Chem, 2025).
Calls of active or inactive are those of the source. No cut-off for these calls is given here.

Legend:
Arginase-1 [1] = molecular target: T1, Arginase-1 (Bos taurus, UniProt Q2KJ64); assay: Inhibition of bovine Arg-1 using L-ARG as substrate incubated for 60 mins by OPA colorimetric analysis
T1 sequence (Q2KJ64 whole entry): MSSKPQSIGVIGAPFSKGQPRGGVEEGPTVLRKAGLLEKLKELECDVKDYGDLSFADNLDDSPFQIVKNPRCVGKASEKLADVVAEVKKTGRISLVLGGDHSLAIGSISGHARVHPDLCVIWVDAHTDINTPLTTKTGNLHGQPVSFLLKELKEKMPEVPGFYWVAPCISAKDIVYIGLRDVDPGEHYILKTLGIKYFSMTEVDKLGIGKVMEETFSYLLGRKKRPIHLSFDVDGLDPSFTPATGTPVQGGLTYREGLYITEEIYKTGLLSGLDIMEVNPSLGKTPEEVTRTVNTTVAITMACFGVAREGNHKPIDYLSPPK

Arginase-1 [2] = molecular target: T2, Arginase-1 (Homo sapiens, UniProt P05089); assay: Inhibition of recombinant human Arg-1 using L-ARG as substrate incubated for 60 mins by OPA colorimetric analysis
T2 sequence (P05089 whole entry): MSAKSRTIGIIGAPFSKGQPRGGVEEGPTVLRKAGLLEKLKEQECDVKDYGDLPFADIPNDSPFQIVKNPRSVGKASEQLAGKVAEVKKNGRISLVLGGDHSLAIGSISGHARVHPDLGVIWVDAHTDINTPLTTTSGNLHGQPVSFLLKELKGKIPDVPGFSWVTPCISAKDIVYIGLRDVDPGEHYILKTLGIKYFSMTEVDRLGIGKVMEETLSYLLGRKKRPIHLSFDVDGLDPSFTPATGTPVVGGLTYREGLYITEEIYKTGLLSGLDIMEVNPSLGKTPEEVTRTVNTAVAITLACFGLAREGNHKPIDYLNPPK

[3] = Antioxidant activity assessed as DPPH radical scavenging activity incubated for 30 mins under dark condition by absorbance based analysis; assay type: functional
[4] = Antioxidant activity assessed as ABTS radical scavenging activity incubated for 12 hrs under dark condition by absorbance based plate reader analysis; assay type: functional
Arginase-1 (Bos taurus) = molecular target: T3, Arginase-1 (Bos taurus) (UniProt Q2KJ64); assay: Potency index, ratio of piceatannol IC50 to test compound IC50 for inhibition of bovine Arg-1 using L-ARG as substrate
T3 sequence (whole entry): T1 sequence (Q2KJ64 whole entry)

[5] = Stability of the compound in aqueous solution at 20 mM measured after 4 hrs; assay type: physicochemical; conditions: buffer, 20000 µM
[6] = Cytotoxicity against human Red-COLA1 cells assessed as cell viability at 5 uM incubated for 24 hrs by MTT assay relative to control; assay type: functional; conditions: read-out: Activity
Red-COLA1 [7] = assay: (§1) Antifibrotic activity against TGF-beta induced human Red-COLA1 cells assessed as reduction in procollagen type-1 synthesis at 5 uM incubated for 48 hrs by ELISA (reference value: 130.6 ng/ml); assay type: functional
[8] = Antifibrotic activity against TGF-beta induced human Red-COLA1 cells assessed as reduction in collagen deposition rate at 5 uM measured after 7 days by sirius red staining based microplate reader analysis (reference value: 130.6%); assay type: functional; set-up: scale not given: the % may be the effect or the level left; conditions: time 7 day
[9] = Stability of the compound in aqueous solution at 20 mM measured at <= 2 hrs relative to control; assay type: physicochemical; conditions: read-out: Stability
[10] = as §1; assay type: functional
[11] = Cytotoxicity against human Red-COLA1 cells assessed as cell viability at 10 uM incubated for 24 hrs by MTT assay relative to control; assay type: functional; conditions: read-out: Activity
Red-COLA1 [12] = assay: Antifibrotic activity against TGF-beta induced human Red-COLA1 cells assessed as reduction in procollagen type-1 synthesis at 10 uM incubated for 48 hrs by ELISA (reference value: 130.6 ng/ml); assay type: functional, cell-based
[13] = Antifibrotic activity against TGF-beta induced human Red-COLA1 cells assessed as reduction in collagen deposition rate at 10 uM measured after 7 days by sirius red staining based microplate reader analysis (reference value: 130.6%); assay type: functional; set-up: scale not given: the % may be the effect or the level left; conditions: time 7 day

## Oc1ccc(C(=S)Nc2ccc(O)c(O)c2)cc1
Arginase-1 [1]
  IC50: 13 µM
Arginase-1 [2]
  IC50: 38 µM
[3]
  EC50: 14 µM
[4]
  EC50: 10 µM

## Oc1ccc(O)c(/C=C/c2ccc(O)c(O)c2)c1
Arginase-1 [1]
  IC50: 59 µM

## O=C(Nc1ccc(O)c(O)c1)c1cccc(O)c1O
Arginase-1 [1]
  IC50: 69 µM

## O=C(Nc1ccc(O)cc1)c1ccc(O)c(O)c1
Arginase-1 [1]
  IC50: 2600 µM

## Cc1c(C)c2c(c(C)c1O)CCC(C)(C(=O)O)O2 (stereo not given) [TROLOX]
[3]
  EC50: 29 µM
[4]
  EC50: 24 µM

## O=C(c1ccc(O)c(O)c1)N(CCO)c1ccc(O)c(O)c1
Arginase-1 [1]
  IC50: 228 µM

## CN(C(=O)c1ccc(O)c(O)c1)c1ccc(O)c(O)c1
Arginase-1 [1]
  IC50: 222 µM

## O=S(=O)(Nc1ccc(O)c(O)c1)c1cc(O)ccc1O
Arginase-1 [1]
  IC50: > 500 µM

## O=S(=O)(Nc1ccc(O)c(O)c1)c1cccc(O)c1
Arginase-1 [1]
  IC50: 325 µM

## O=C(Nc1ccc(O)c(O)c1)c1cc(O)c(O)c(O)c1
Arginase-1 [1]
  IC50: 65 µM

## O=C(Nc1ccc(O)c(O)c1)c1ccc(O)c(O)c1
Arginase-1 [1]
  IC50: 20 µM
[3]
  EC50: 12 µM
[4]
  EC50: 12 µM

## Nc1cccc(NC(=O)c2ccc(O)c(O)c2)c1
Arginase-1 [1]
  IC50: 440 µM

## Oc1cccc(C(=S)Nc2ccc(O)c(O)c2)c1
Arginase-1 [1]
  IC50: 16 µM
Arginase-1 [2]
  IC50: 28 µM
[3]
  EC50: 10 µM
[4]
  EC50: 12 µM

## O=S(=O)(Nc1ccc(O)c(O)c1)c1ccc(O)c(O)c1
Arginase-1 [1]
  IC50: 130 µM
Arginase-1 (Bos taurus)
  Ratio IC50: 6

## O=C(Nc1ccccc1)c1ccc(O)c(O)c1
Arginase-1 [1]
  IC50: 1000 µM

## Oc1cc(O)cc(C(=S)Nc2ccc(O)c(O)c2)c1
Arginase-1 [1]
  IC50: 20 µM
Arginase-1 [2]
  IC50: 32 µM
[5]
  Stability: Stable
[3]
  EC50: 17 µM
[4]
  EC50: 12 µM
[6]
  viability at 5 µM: 100%
Red-COLA1 [7]
  Activity: inactive
[8]
  Activity: 133.1%

## Oc1cccc(NC(=S)c2ccc(O)c(O)c2)c1
Arginase-1 [1]
  IC50: 41 µM

## Nc1cccc(NC(=S)c2ccc(O)c(O)c2)c1
Arginase-1 [1]
  IC50: 116 µM

## Oc1cc(O)cc(NC(=S)c2ccc(O)c(O)c2)c1
Arginase-1 [1]
  IC50: 66 µM

## O=C(Nc1cccc(O)c1)c1ccc(O)c(O)c1
Arginase-1 [1]
  IC50: 770 µM

## O=C(Nc1ccc(O)c(O)c1)c1cc(O)cc(O)c1
Arginase-1 [1]
  IC50: 34 µM
[3]
  EC50: 23 µM
[4]
  EC50: 5 µM

## Oc1ccc(/N=C(/Nc2ccc(O)c(O)c2)c2ccc(O)c(O)c2)cc1O
Arginase-1 [1]
  IC50: 171 µM

## Oc1ccc(NC(=S)c2ccc(O)c(O)c2)cc1O
Arginase-1 [1]
  IC50: 9 µM
Arginase-1 (Bos taurus)
  Ratio IC50: 2
Arginase-1 [2]
  IC50: 55 µM
[9]
  remaining at 2 h, 20000 µM: 70%
[3]
  EC50: 9 µM
[4]
  EC50: 12 µM
[6]
  viability at 5 µM: 92.8%
[10]
  Activity: 87.5 ng/mL
[8]
  Activity: 100.8%

## Oc1ccc(C(=S)Nc2ccccc2)cc1O
Arginase-1 [1]
  IC50: 124 µM

## O=C(c1ccc(O)c(O)c1)N(CCCCO)c1ccc(O)c(O)c1
Arginase-1 [1]
  IC50: 88 µM

## O=C(Nc1cc(O)cc(O)c1)c1ccc(O)c(O)c1
Arginase-1 [1]
  IC50: 202 µM

## O=C(Nc1ccccc1O)c1ccc(O)c(O)c1
Arginase-1 [1]
  IC50: 3100 µM

## Oc1ccc(NC(=S)c2ccccc2)cc1O
Arginase-1 [1]
  IC50: 63 µM

## O=c1c(O)c(-c2ccc(O)c(O)c2)oc2cc(O)cc(O)c12 [QUERCETIN]
[3]
  EC50: 16 µM
[4]
  EC50: 10 µM

## O=C(c1ccc(O)c(O)c1)N(CCCO)c1ccc(O)c(O)c1
Arginase-1 [1]
  IC50: 148 µM

## Oc1ccc(/C=C/c2ccccc2)cc1O [(E)-3,4-STILBENDIOL]
Arginase-1 [1]
  IC50: 97 µM

## Oc1ccc(/C=C/c2ccc(O)c(O)c2)cc1O
Arginase-1 [1]
  IC50: 69 µM

## O=C(c1ccc(O)c(O)c1)N(CCCCCO)c1ccc(O)c(O)c1
Arginase-1 [1]
  IC50: 137 µM

## Oc1cc(O)cc(/C=C/c2ccc(O)c(O)c2)c1 [PICEATANNOL]
Arginase-1 [1]
  IC50: 20 µM
Arginase-1 [2]
  IC50: 28 µM
[9]
  remaining at 2 h, 20000 µM: 70%
[3]
  EC50: 37 µM
[4]
  EC50: 13 µM
[11]
  viability at 10 µM: 100%
Red-COLA1 [12]
  Activity: inactive
[13]
  Activity: 113.5%

## N[C@@H](CSCCB(O)O)C(=O)O
Arginase-1 [1]
  IC50: 17 µM
Arginase-1 [2]
  IC50: 9 µM
[11]
  viability at 10 µM: 96.7%
Red-COLA1 [12]
  Activity: inactive
[13]
  Activity: 130.6%

## Oc1ccc(NC(=S)c2ccc(O)c(O)c2)cc1
Arginase-1 [1]
  IC50: 95 µM

## Nc1ccc(NC(=O)c2ccc(O)c(O)c2)cc1
Arginase-1 [1]
  IC50: 170 µM

## Nc1cccc(C(=S)Nc2ccc(O)c(O)c2)c1
Arginase-1 [1]
  IC50: 161 µM

## O/N=C(/Nc1ccc(O)c(O)c1)c1ccc(O)c(O)c1
Arginase-1 [1]
  IC50: 115 µM
[3]
  EC50: 16 µM
[4]
  EC50: 12 µM
